# Experimental data published in EP0385952A2, “Use of a naphthalenmethanamino derivative as antiinflammatory agent and pharmaceutical compositions containing it” (SANDOZ AG, priority 1989, dated 1990).
# pIC50: −log10 of the molar value. Read-outs that look alike come from different tables or passages of the source. Marks after values point to notes of the source that are not given here.
# Legend:
# [1] = system: OF₁-mouse resident peritoneal macrophages; test: Zymosan-induced release of TXB₂, PGE₂ and LTC₄; format: cell-based; details: Peritoneal macrophage, 2 hours
# Protocol: The test compound is added in various concentrations to monolayers of OF₁-mouse resident peritoneal macrophages isolated as described in J. Schnyder and M. Baggiolini, J. Exp. Med. 148 (1978) 435-450. 0.5 ml of the suspension containing 1.2 x 10⁶ cells/ml DMEM (Dulbecco's modified Eagles medium, non-essential amino acids, 2 mM L-glutamine, 100 U/ml penicillin/streptomycin) containing 2 % heat-inactivated fetal calf serum and 20 U heparin/ml is added to each well of 24-well plates (diameter 1.6 cm) and allowed to adhere at 37°C for 2 hours in 5 % CO₂/air. The monolayers are then washed with PBS and 0.5 ml DMEM containing 1 % heat-inactivated fetal calf serum added. Various concentrations of the test substance in the same medium (containing a maximum final concentration of 1 % DMSO) are added, the final volume being 0.98 ml, and after 10 minutes at 37°C, the cells are stimulated by addition of 20 µl of a 1-20 v/v dilution of zymosan particles (Sigma Chemie, Deisenhofen, FRG) in 50 mg/ml PBS. After 2 hours at 37° C, the media are removed, centrifuged at 1300 g for 5 minutes and decanted. The cells are lysed with 1ml 0.01 % digitonin. The supernatants are then analysed by radioimmunoassay procedures for thromboxane B₂, prostaglandin E₂ and leukotriene C₄. Lactate dehydrogenase activities in the medium and cell lysates are also measured as an indication of cell toxicity.
# [2] = system: human keratinocytes; test: Inhibition of TPA-stimulated PGE₂ synthesis of human keratinocytes; format: cell-based; details: Keratinocyte, TPA 100 ng/ml, 24 hours, read-out: IC₅₀, inhibition of TPA-stimulated PGE₂ synthesis
# Protocol: Cultures of human keratinocytes are obtained by trypsinisation of neonatal human foreskins. The keratinocyte cultures are grown in a supplemented keratinocyte growth medium (KGM; Clonetics) using culture flasks. Passages 3-5 of 80-90 % confluent keratinocytes are resuspended in KGM at a concentration of 1x10⁵ cells/ml and 0.1 ml are plated into 96 well-microtiter plates in the presence of test compound. For the stimulation of PGE₂ release human keratinocytes or the HACAT human skin keratinocyte cell line [P. Boukamp et al., J. Cell Biol. 106 (1988) 761-771] are grown to confluence in KGM medium and stimulated with TPA (100 ng/ml) for 24 hours. Conditioned media are centrifuged and concentrations of PGE₂ are determined using a ¹²⁵I radioimmunoassay (NEN, Boston, Mass.). Each sample is assayed in duplicate.
# [3] = system: HACAT cell line; test: Modulation of keratinocyte gene expression and NAP1/IL-8 protein release; format: cell-based, human; details: for inhibition at 10 µM: Homo sapiens, HaCaT, ELISA
# Protocol: The HACAT cell line is grown in 200 ml culture flasks in KGM medium (Clonetics) at 0.06 mM Ca until 50 % confluency. Thereafter cells are starved in KBM medium (Clonetics) for 2 days. The resulting preconfluent cells are then stimulated with αTNF (Genzyme, 500 or 1000 U/ml) or IL-1α (Boehringer, 200 U/ml) obtained from stock solutions and further diluted in KBM medium for the indicated times in the presence of test substance. At the end of the incubation period total cellular RNA is extracted as described above under 1.1.5. 20 µg RNA is run on 1 % formaldehyde agarose gels and transferred onto hybond N filters (Amersham) in a northern capillary transfer using 20xSSC. The filters are then baked for 2 hours and prehybridized for 4 hours. Hybridization (16 hours) and washing are performed at 65°C using oligonucleotide probes for NAP1/IL-8. For control, blots are rehybridised with an actin probe (Oncor). Concentrations of NAP1/IL-8 in the supernatants of the keratinocyte cultures are determined using a solid phase double ligand ELISA.
# [4] = system: human neutrophils; test: Zymosan-stimulated superoxide release; format: cell-based; details: Neutrophil, read-out: IC₅₀ for zymosan-stimulated superoxide release
# [5] = system: 5,12-lipoxygenase; test: 5,12-lipoxygenase inhibition (neutrophil functions); format: cell-based; details: read-out: IC₅₀ for 5,12-lipoxygenase
# [6] = system: NMRI mice; test: Cantharidin-induced pinnal swelling in mice (irritant contact dermatitis, 2.1.1.); format: in vivo; details: epicutaneous, pinnal weight
# Protocol: Skin irritation with arachidonic acid or cantharidin is often used to experimentally induce inflammation in order to evaluate the anti-inflammatory activity of a compound [see e.g. Inflammation 8 (1984) 134-135; 10 (1986) 205-214]. NMRI mice (8 animals per group) receive 10 µl of a 10 % solution of arachidonic acid [J.M. Young et al., J. Invest. Derm. 82 (1986) 367-371] in acetone or, respectively, 0.08 % cantharidin [K.E. Swingle et al., Arch. Int. Pharmacodyn. Ther. 254 (1981) 168-176] in acetone applied to the medial and lateral surface of the right external ear. Treatment is performed either prophylactically 30 minutes before irritation (arachidonic acid) or, respectively, either simultaneously with the application of irritant solution or therapeutically 20 minutes after irritation (cantharidin), by a single epicutaneous application of the test compound dissolved in a mixture of N,N-dimethylacetamide, acetone and alcohol (2:2:4). The evaluation of the test group is effected by comparison with a control group of animals having received on the right ear lobe only the carrier substance or the irritant solution. The animals are killed 1.5 hours (arachidonic acid) or, respectively, 17 hours (cantharidin) after application of the irritant and efficacy in assessed by determination of the differences in auricular weight. Differences in weights (D) of right (involved) and left (uninvolved) pinnae of animals treated with test compound and arachidonic acid or cantharidin (T-group) are compared with differences in mice treated with arachidonic acid only or cantharidin only (C-group). Efficacy (%) is calculated according to the equation: [formula]
# [7] = system: guinea pigs; test: UV-erythema model (2.2.); format: in vivo; details: therapeutic, test concentration 5.0 %, topical, erythema score
# Protocol: Female guinea pigs weighing 250-300 g are used. On the day before experiment they are shorn on both flanks followed by a final dry shaving without skin irritation two hours before UV exposure. Two circular areas (10 mm diameter) on each flank are exposed 10 seconds to ultraviolet rays from […] at an intensity of 16 mW/cm² (UVA) and 500 mW/cm² (UVB). Drugs are administered topically immediately after exposure to UV light in a volume of 50 µl of 25 % ethanol and 75 %polyethylenglycol-400 to the irradiated skin areas on the right flank. Two areas on the left flank serve as vehicle control. Erythema is assessed visually 3.5 and 5.5 hours after irradiation and results expressed in scores. Changes in erythema intensity after drug administration are expressed as percentages of the scored erythema intensity in vehicle-treated areas.
# [8] = Solubility in water; format: physicochemical; details: at 25°C
compound,measurement,setting,value
"CN(C/C=C/c1ccc(O)cc1)Cc1cccc2ccccc12 [compound of the invention, (E)-N-methyl-N-[3-(4-hydroxyphenyl)-2-propenyl]-1-naphthalene-methanamine]",pIC50,[1]; read-out: IC₅₀ for LTC₄,5.10
same,pIC50,[1]; read-out: IC₅₀ for PGE₂,5.82
same,pIC50,[1]; read-out: IC₅₀ for TXB₂,5.22
same,pIC50,[2],5.52 to 6.00
same,inhibition at 10 µM,[3]; read-out: inhibition of IL-1α-stimulated release of NAP1/IL-8,40%
same,inhibition at 10 µM,[3]; read-out: inhibition of αTNF-stimulated release of NAP1/IL-8,90%
same,αTNF-induced NAP1/IL-8 mRNA accumulation decreased to,"[3]; remaining level, 20.0 µM",60%
same,pIC50,[4],< 4.00
same,pIC50,[5],4.35
same,Efficacy (%),"[6]; simultaneous, test concentration 1.2 %",26%
same,Efficacy (%),"[6]; simultaneous, test concentration 3.6 %",52** %
same,Efficacy (%),"[6]; therapeutic, test concentration 1.2 %",25%
same,Efficacy (%),"[6]; therapeutic, test concentration 3.6 %",50** %
same,Efficacy (%),[7],27%
same,solubility,[8],< 100 µg/mL
